Experimental data as given in ChEMBL document CHEMBL1201862, “PubChem BioAssay data set” (2004).
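Compound exposure: 48 hours, 5 concentrations, 96-well plates. The concentration for 50% growth inhibition is given as GI50.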 The source made the active and inactive calls. No stated cut-off is given here; in the data, active = GI50 up to about 1.1 µM and inactive = higher.

Columns and labels:
Assay in all cases: NCI anticancer screen, dose series, 48 h
A498 = system: A498
ACHN = system: ACHN
CCRF-CEM = system: CCRF-CEM
COLO 205 = system: COLO 205
HCC 2998 = system: HCC 2998
HCT-15 = system: HCT-15
HL-60 = system: HL-60
KM12 = system: KM12
M14 = system: M14
MCF7 = system: MCF7
MDA-MB-231 = system: MDA-MB-231
MDA-MB-435 = system: MDA-MB-435
NCI-H460 = system: NCI-H460
OVCAR-3 = system: OVCAR-3
OVCAR-5 = system: OVCAR-5
PC-3 = system: PC-3
SNB-19 = system: SNB-19
T47D = system: T47D
UO-31 = system: UO-31
HOP-62 = system: HOP-62

## COc1cc(OC)c(-c2oc3ccccc3c(=O)c2O)c(OC)c1
A498
  GI50: 3.27 µM (inactive)
ACHN
  GI50: > 29 µM (inactive)
CCRF-CEM
  GI50: 6.75 µM (inactive)
COLO 205
  GI50: 3.08 µM (inactive)
HCC 2998
  GI50: 0.586 µM (active)
HCT-15
  GI50: 2.99 µM
HL-60
  GI50: 2.43 µM (inactive)
KM12
  GI50: 1.99 µM (inactive)
M14
  GI50: 2.55 µM (inactive)
MCF7
  GI50: 6.25 µM (inactive)
MDA-MB-231
  GI50: > 20.7 µM (inactive)
MDA-MB-435
  GI50: 0.889 µM (active)
NCI-H460
  GI50: 3.21 µM (inactive)
OVCAR-3
  GI50: 2.63 µM (inactive)
OVCAR-5
  GI50: > 100 µM (inactive)
PC-3
  GI50: 5.69 µM (inactive)
SNB-19
  GI50: > 57.1 µM (inactive)
T47D
  GI50: 4.16 µM (inactive)
UO-31
  GI50: > 62.7 µM (inactive)

## Cc1ccc2nc(-c3nccn3C)cc(C(=O)NC(C)CN(C)C)c2c1 (stereo unspecified)
A498
  GI50: > 100 µM (inactive)
ACHN
  GI50: 60 µM (inactive)
COLO 205
  GI50: > 100 µM (inactive)
HCC 2998
  GI50: > 10 µM (inactive)
HCT-15
  GI50: 55.1 µM
HL-60
  GI50: 10.1 µM (inactive)
HOP-62
  GI50: 34.9 µM (inactive)
KM12
  GI50: > 100 µM (inactive)
M14
  GI50: > 100 µM (inactive)
MCF7
  GI50: 63 µM (inactive)
MDA-MB-231
  GI50: > 100 µM (inactive)
MDA-MB-435
  GI50: > 100 µM (inactive)
NCI-H460
  GI50: 24.9 µM (inactive)
OVCAR-5
  GI50: > 100 µM (inactive)
PC-3
  GI50: 25.3 µM (inactive)
SNB-19
  GI50: > 100 µM (inactive)
T47D
  GI50: > 100 µM (inactive)
UO-31
  GI50: 92.7 µM (inactive)

## COc1ccc(NC2=NCCO2)c2c1CCCC2
A498
  GI50: 61.1 µM (inactive)
ACHN
  GI50: 29.6 µM (inactive)
CCRF-CEM
  GI50: 25.5 µM (inactive)
COLO 205
  GI50: 28.2 µM (inactive)
HCC 2998
  GI50: 31.9 µM (inactive)
HCT-15
  GI50: 31.6 µM
HL-60
  GI50: 15.5 µM (inactive)
KM12
  GI50: 42.6 µM (inactive)
M14
  GI50: 29.2 µM (inactive)
MCF7
  GI50: 27.4 µM (inactive)
MDA-MB-231
  GI50: 43.8 µM (inactive)
MDA-MB-435
  GI50: 29.6 µM (inactive)
NCI-H460
  GI50: 34.5 µM (inactive)
OVCAR-3
  GI50: 29.1 µM (inactive)
OVCAR-5
  GI50: 64.9 µM (inactive)
PC-3
  GI50: 26.7 µM (inactive)
SNB-19
  GI50: 39.4 µM (inactive)
T47D
  GI50: 35.2 µM (inactive)
UO-31
  GI50: 53.5 µM (inactive)

## N#CC(c1ccccc1)N(CCOCCOCCN(C(=O)c1cccc2ccccc12)C(C#N)c1ccccc1)C(=O)c1cccc2ccccc12 (stereo unspecified)
A498
  GI50: > 100 µM (inactive)
ACHN
  GI50: > 100 µM (inactive)
CCRF-CEM
  GI50: > 100 µM (inactive)
COLO 205
  GI50: 52.1 µM (inactive)
HCC 2998
  GI50: > 100 µM (inactive)
HCT-15
  GI50: > 100 µM
HL-60
  GI50: 31.7 µM (inactive)
KM12
  GI50: > 100 µM (inactive)
M14
  GI50: > 100 µM (inactive)
MCF7
  GI50: > 100 µM (inactive)
MDA-MB-231
  GI50: > 100 µM (inactive)
MDA-MB-435
  GI50: > 100 µM (inactive)
NCI-H460
  GI50: 87.1 µM (inactive)
OVCAR-3
  GI50: > 100 µM (inactive)
OVCAR-5
  GI50: > 100 µM (inactive)
PC-3
  GI50: > 100 µM (inactive)
SNB-19
  GI50: > 100 µM (inactive)
T47D
  GI50: 4.1 µM (inactive)
UO-31
  GI50: > 100 µM (inactive)

## COc1ccc(-c2[nH]c(-c3ccc(OC)cc3)c(-c3ccccn3)c2-c2ccccn2)cc1
A498
  GI50: 82 µM (inactive)
ACHN
  GI50: 74 µM (inactive)
CCRF-CEM
  GI50: 35.2 µM (inactive)
COLO 205
  GI50: 26 µM (inactive)
HCC 2998
  GI50: 13.6 µM (inactive)
HCT-15
  GI50: 26.1 µM
HL-60
  GI50: 32.4 µM (inactive)
KM12
  GI50: 38.2 µM (inactive)
M14
  GI50: 48.1 µM (inactive)
MCF7
  GI50: 42.7 µM (inactive)
MDA-MB-231
  GI50: 89.3 µM (inactive)
MDA-MB-435
  GI50: 21.7 µM (inactive)
NCI-H460
  GI50: 31.8 µM (inactive)
OVCAR-3
  GI50: 48.9 µM (inactive)
OVCAR-5
  GI50: > 100 µM (inactive)
PC-3
  GI50: 44 µM (inactive)
SNB-19
  GI50: 68.7 µM (inactive)
T47D
  GI50: 31.5 µM (inactive)
UO-31
  GI50: 33.7 µM (inactive)

## C[C@]12CCC(=O)O[C@H]1CCCCO2
A498
  GI50: > 100 µM (inactive)
CCRF-CEM
  GI50: > 100 µM (inactive)
COLO 205
  GI50: > 100 µM (inactive)
HCC 2998
  GI50: > 100 µM (inactive)
HCT-15
  GI50: > 100 µM
HL-60
  GI50: > 100 µM (inactive)
HOP-62
  GI50: > 100 µM (inactive)
KM12
  GI50: > 100 µM (inactive)
M14
  GI50: > 100 µM (inactive)
MCF7
  GI50: > 100 µM (inactive)
MDA-MB-231
  GI50: > 100 µM (inactive)
MDA-MB-435
  GI50: > 100 µM (inactive)
NCI-H460
  GI50: > 100 µM (inactive)
OVCAR-3
  GI50: > 100 µM (inactive)
OVCAR-5
  GI50: > 100 µM (inactive)
PC-3
  GI50: > 100 µM (inactive)
T47D
  GI50: > 100 µM (inactive)
